The assay concerns wild type HCT116 cells. Put plainly: Clonogenic cell survival assay, OLFM4 added to the medium with genotoxic treatment. The format is cell-based, human. To be noted: 10 days. On the procedure:
The influence of OLFM4 following genotoxic treatments in HCT116 OLFM4 inducible cells was evaluated by clonogenic assay. Cells were incubated with 50 ng/ml of doxycyclin, and then 24 hr later treated with oxaliplatin or sn38 at the indicated concentration for 10 days. The colonies were stained with crystal violet and counted by QuantityOne software (Biorad). B. OLFM4 overexpressed in COS7 cells, was added at approximately 3 ng/ml to oxaliplatin and sn38 treatment in the wild type HCT116 cells for 10 days. The colonies were stained and count as above. The histograms shown are representative of three individual experiments.
The human colon adenocarcinoma cell line HCT116 (American Type Culture Collection, ATCC) were maintained in antibiotic-free RPMI 1640 medium (Lonza). Cultures were supplemented with 10% fetal bovine serum. […]
HCT116 stable OLFM4 cells were seeded at 300 cells into 6 well cell culture plates with RPMI 1640 medium supplement with 3% fetal bovine serum and incubated at 37° C. in a 5% CO2 atmosphere. […] The number of colonies exceeding 50 cells was visualized with a Bio-Rad Chemi Doc XRS Imaging device and counted using Quantity One imaging software (Bio-Rad). The survival fraction was determined as the ratio of the number of colonies observed without doxycycline to the number of cells with doxycycline, adjusted to the plating efficiency.

Consider “OLFM4: Secreted N-glycosylated protein of 510 residues, overexpressed in COS7 cells and added to culture medium”, for which the “resistance to oxaliplatin (colony survival, clonogenic assay)” value (OLFM4 overexpressed in COS7 cells added at approximately 3 ng/ml to oxaliplatin treatment) is “promotes resistance”. Moreover, the “resistance to sn38 (colony survival, clonogenic assay)” value (OLFM4 overexpressed in COS7 cells added at approximately 3 ng/ml to sn38 treatment) was “promotes resistance”.

Source of the values: patent US9523691B2, “Use of the olfactomedin-4 protein (OLFM4) in colorectal cancer diagnosis” (INSTITUT DE CANCEROLOGIE DE L'OUEST, priority 2011, dated 2016).
